From ChEMBL document CHEMBL1208678, “Synthesis of some new 4(3H)-quinazolinone-2-carboxaldehyde thiosemicarbazones and their metal complexes and a study on their anticonvulsant, analgesic, cytotoxic and antimicrobial activities - part-1” (Eur J Med Chem, 2010)
Converted amounts (≈) assume the structure as drawn. The source made the active and inactive calls. No cut-off for these calls is given here.

Tests used:
Mus musculus [1] = assay: Analgesic activity in Swiss albino mouse assessed as reaction time at 2 mg/kg, ip after 1 hr by hotplate method (reference value: 7.5 seconds); format: functional; conditions: route intraperitoneal
Mus musculus [2] = assay: Analgesic activity in Swiss albino mouse assessed as reaction time at 2 mg/kg, ip after 0.5 hrs by hotplate method (reference value: 7.4 seconds); format: functional; conditions: route intraperitoneal
Rattus norvegicus [3] = assay: Anticonvulsant activity in Wistar rat assessed as protection against pentylenetetrazole-induced seizure at 2 mg/kg, ip administered 45 mins before pentylenetetrazole challenge; format: functional, organism-based; set-up: dose 2 mg/kg
Rattus norvegicus [4] = assay: Anticonvulsant activity against pentylenetetrazole-induced seizure in Wistar rat assessed as duration of seizure at 2 mg/kg, ip administered 45 mins before pentylenetetrazole challenge (reference value: 312 seconds); format: functional; conditions: route intraperitoneal
Rattus norvegicus [5] = assay: Anticonvulsant activity against pentylenetetrazole-induced seizure in Wistar rat assessed as shock latency time at 2 mg/kg, ip administered 45 mins before pentylenetetrazole challenge (reference value: 118 seconds); format: functional; conditions: route intraperitoneal
Bacillus subtilis [6] = assay: Antibacterial activity against Bacillus subtilis ATCC 6633 at 100 ug after 24 hrs by paper disc method; format: functional; conditions: ATCC 6633, 24 h, read-out: IZ
Escherichia coli [7] = assay: Antibacterial activity against Escherichia coli ATCC 7839 at 100 ug after 24 hrs by paper disc method; format: functional; conditions: ATCC 7839, 24 h, read-out: IZ
Pseudomonas aeruginosa = assay: Antibacterial activity against Pseudomonas aeruginosa ATCC 9027 at 100 ug after 24 hrs by paper disc method; format: functional; conditions: ATCC 9027, 24 h, read-out: IZ
Mus musculus [8] = assay: Acute toxicity in mouse assessed as mortality up to 1200 mg/kg, po; format: organism-based; set-up: dose 1200 mg/kg, route oral; conditions: in vivo
Rattus norvegicus [9] = assay: Anticonvulsant activity against pentylenetetrazole-induced seizure in Wistar rat assessed as duration of seizure at 50 mg/kg, ip administered 45 mins before pentylenetetrazole challenge (reference value: 312 seconds); format: functional; conditions: route intraperitoneal
Rattus norvegicus [10] = assay: Anticonvulsant activity in Wistar rat assessed as protection against pentylenetetrazole-induced seizure at 50 mg/kg, ip administered 45 mins before pentylenetetrazole challenge; format: functional, organism-based; set-up: dose 50 mg/kg
Rattus norvegicus [11] = assay: Anticonvulsant activity against pentylenetetrazole-induced seizure in Wistar rat assessed as shock latency time at 50 mg/kg, ip administered 45 mins before pentylenetetrazole challenge (reference value: 118 seconds); format: functional; conditions: route intraperitoneal
Fusarium oxysporum [12] = assay: […] activity against Fusarium oxysporum after 24 hrs by twofold serial dilution method; format: functional
Escherichia coli [13] = assay: Antibacterial activity against Escherichia coli ATCC 7839 after 24 hrs by twofold serial dilution method; format: functional; conditions: ATCC 7839, 24 h
Aspergillus ochraceus = assay: Antifungal activity against Aspergillus ochraceus Wilhelm at 100 ug after 24 hrs by paper disc method; format: functional; conditions: for zone of inhibition at 100 µg/disc: read-out: IZ
Staphylococcus aureus [14] = assay: Antibacterial activity against Staphylococcus aureus ATCC 6538 after 24 hrs by twofold serial dilution method; format: functional; conditions: ATCC 6538, 24 h
Staphylococcus aureus [15] = assay: Antibacterial activity against Staphylococcus aureus ATCC 6538 at 100 ug after 24 hrs by paper disc method; format: functional; conditions: ATCC 6538, 24 h, read-out: IZ
Mus musculus [16] = assay: Analgesic activity in Swiss albino mouse assessed as reaction time at 50 mg/kg, ip after 0.5 hrs by hotplate method (reference value: 7.4 seconds); format: functional; conditions: route intraperitoneal
Mus musculus [17] = assay: Analgesic activity in Swiss albino mouse assessed as reaction time at 50 mg/kg, ip after 1 hr by hotplate method (reference value: 7.5 seconds); format: functional; conditions: route intraperitoneal
Bacillus subtilis [18] = assay: Antibacterial activity against Bacillus subtilis ATCC 6633 after 24 hrs by twofold serial dilution method; format: functional; conditions: ATCC 6633, 24 h
Fusarium oxysporum [19] = assay: Antifungal activity against Fusarium oxysporum at 100 ug after 24 hrs by paper disc method; format: functional; conditions: for zone of inhibition at 100 µg/disc: read-out: IZ
[20] = Cytotoxicity against mouse EAC cells assessed as cell death at 50 ug/ml after 2 hrs by Trypan blue exclusion method; format: functional, Ehrlich
[21] = Cytotoxicity against mouse EAC cells assessed as cell death at 25 ug/ml after 2 hrs by Trypan blue exclusion method; format: functional, Ehrlich
[22] = Cytotoxicity against mouse EAC cells assessed as cell death at 100 ug/ml after 2 hrs by Trypan blue exclusion method; format: functional, Ehrlich

| Molecule | zone of inhibition at 100 µg/disc (Bacillus subtilis [6]) [mm] | zone of inhibition at 100 µg/disc (Escherichia coli [7]) [mm] | zone of inhibition at 100 µg/disc (Pseudomonas aeruginosa) [mm] | Activity (Mus musculus [8]) | Time (Rattus norvegicus [9]) [s] | Activity (Rattus norvegicus [10]) | Time (Rattus norvegicus [11]) [s] | zone of inhibition at 100 µg/disc (Staphylococcus aureus [15]) [mm] | Time (Mus musculus [16]) [s] | Time (Mus musculus [17]) [s] | further results |
| --- | --- | --- | --- | --- | --- | --- | --- | --- | --- | --- | --- |
| CN1C(=O)CN=C(c2ccccc2)c2cc(Cl)ccc21 [DIAZEPAM] | – | – | – | – | – | – | – | – | – | – | Time (Mus musculus [1]): 65.9 s; Time (Mus musculus [2]): 62.9 s; Activity (Rattus norvegicus [3]): Active; Time (Rattus norvegicus [4]): 0 s; Time (Rattus norvegicus [5]): 3600 s |
| CC[C@H]1OC(=O)[C@H](C)[C@@H](O[C@H]2C[C@@](C)(OC)[C@@H](O)[C@H](C)O2)[C@H](C)[C@@H](O[C@@H]2O[C@H](C)C[C@H](N(C)C)[C@H]2O)[C@](C)(O)C[C@@H](C)C(=O)[C@H](C)[C@@H](O)[C@]1(C)O [ERYTHROMYCIN] | 30 | 15 | 16 | – | – | – | – | – | – | – | – |
| CCNC(=S)N/N=C/c1nc2ccc(I)cc2c(=O)n1-c1ccc(F)cc1 | – | – | – | Non-toxic | 520 | inactive | 280 | – | – | – | – |
| NC(=S)N/N=C/c1nc2ccc(I)cc2c(=O)n1-c1ccccc1 | 9 | 0 | 0 | Non-toxic | – | – | – | 8 | 18.6 | 26.6 | MIC (Fusarium oxysporum [12]): 12.5 µg/mL (≈ 27.8 µM); MIC (Escherichia coli [13]): 100 µg/mL (≈ 223 µM); zone of inhibition at 100 µg/disc (Aspergillus ochraceus): 0 mm; MIC (Staphylococcus aureus [14]): 100 µg/mL (≈ 223 µM); MIC (Bacillus subtilis [18]): 100 µg/mL (≈ 223 µM); zone of inhibition at 100 µg/disc (Fusarium oxysporum [19]): 23 mm |
| CCNC(=S)N/N=C/c1nc2ccc(I)cc2c(=O)n1-c1ccccc1 | 0 | 0 | 0 | Non-toxic | – | – | – | 0 | – | – | zone of inhibition at 100 µg/disc (Aspergillus ochraceus): 0 mm; zone of inhibition at 100 µg/disc (Fusarium oxysporum [19]): 15 mm |
| CCn1cc(C(=O)O)c(=O)c2cc(F)c(N3CCNCC3)cc21 [NORFLOXACIN] | 35 | 17 | 15 | – | – | – | – | 27 | – | – | – |
| NC(=S)N/N=C/c1nc2ccc(I)cc2c(=O)n1-c1ccc(F)cc1 | – | – | – | Non-toxic | 760 | inactive | 660 | – | 19.2 | 27.2 | MIC (Fusarium oxysporum [12]): 12.5 µg/mL (≈ 26.8 µM); Activity [20]: 10%; Activity [21]: 0%; Activity [22]: 40% |
| O=c1c2cc(I)ccc2nc(/C=N/NC(=S)Nc2ccccc2)n1-c1ccccc1 | – | – | – | Non-toxic | – | – | – | – | 10.2 | 19.2 | – |
| O=c1c2cc(I)ccc2nc(/C=N/NC(=S)Nc2ccccc2)n1-c1ccc(F)cc1 | 0 | 8 | 0 | Non-toxic | 350 | inactive | 120 | 0 | 8 | 13.5 | zone of inhibition at 100 µg/disc (Aspergillus ochraceus): 0 mm; Activity [20]: 0%; Activity [21]: 0%; zone of inhibition at 100 µg/disc (Fusarium oxysporum [19]): 25 mm; Activity [22]: 0% |
| CNC(=S)N/N=C/c1nc2ccc(I)cc2c(=O)n1-c1ccccc1 | – | – | – | Non-toxic | – | – | – | – | – | – | MIC (Fusarium oxysporum [12]): 6 µg/mL (≈ 13 µM) |
| CNC(=S)N/N=C/c1nc2ccc(I)cc2c(=O)n1-c1ccc(F)cc1 | – | – | – | Non-toxic | 580 | inactive | 380 | – | 11.1 | 19.2 | Activity [20]: 0%; Activity [21]: 0%; Activity [22]: 20% |
| NYSTATIN | – | – | – | – | – | – | – | – | – | – | inhibition zone (IZ) (Aspergillus ochraceus): 12 mm; inhibition zone (IZ) (Fusarium oxysporum [19]): 20 mm |
